Assay results published in patent publication US8378117B2 (priority 2005, dated 2013).
Read-outs that look alike come from different tables or passages of the source.

Experiments:
[1] = molecular target: T1, CB1 receptor (Homo sapiens, UniProt P21554); experiment: cell-based
T1 construct: expressed in transfected cells
Outline: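 Read-out is forskolin-driven CRE-β-gal reporter activity in stably transfected human-CB1 SK-N-MC cells, normalised to vehicle (100%); agonism lowers, inverse agonism raises signal. Values are EC50 (linear regression, multiple concentrations) or % change at one concentration.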

[2] = molecular target: T2, CB2 receptor (Homo sapiens, UniProt P34972); experiment: Binding assay for CB2 agonists or inverse agonists (SK-N-MC membranes, [3H]-CP-55,940)
T2 construct: expressed in transfected cells
Outline: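 IC50 came from percent-inhibition data over several compound concentrations, fitted by linear regression. Binding used semi-purified membranes of human CB2-transfected SK-N-MC cells, 90 min at 30 °C, pH 7.5 Tris-HCl with MgCl2, EDTA and BSA, then filtration and scintillation counting.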

[3] = molecular target: T1, CB1 receptor; experiment: Binding assay for CB1 agonists or inverse agonists (SK-N-MC membranes, [3H]-CP-55,940); settings: for IC50: Cannabinoid CB1 Receptor Binding IC50, calculated by linear regression from percent inhibition at various test concentrations; for inhibition at 0.2 µM: read-out: CB1 receptor binding percent inhibition, test concentration 0.2 μM (footnote 2)
Outline: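 Radioligand displacement: [3H]-CP-55,940 at […], 90 min at 30° C, pH 7.5 Tris buffer with 0.5 mg/mL fatty-acid-free BSA, using semi-purified membranes of human-CB1-transfected SK-N-MC cells. Bound counts collected on GF/C filters, 10 uM WIN 55,212 for non-specific; IC50 from percent inhibition over several concentrations.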

[4] = CB1 Receptor Functional Inverse Agonist EC50, forskolin induced β-galactosidase activity, SK-N-MC cells
[5] = read-out: CB2 receptor binding percent inhibition, test concentration 0.2 μM (footnote 2)
[6] = CB1 Receptor Functional Agonist EC50, SK-N-MC cells, forskolin induced β-galactosidase activity

T2 sequence (P34972 whole entry): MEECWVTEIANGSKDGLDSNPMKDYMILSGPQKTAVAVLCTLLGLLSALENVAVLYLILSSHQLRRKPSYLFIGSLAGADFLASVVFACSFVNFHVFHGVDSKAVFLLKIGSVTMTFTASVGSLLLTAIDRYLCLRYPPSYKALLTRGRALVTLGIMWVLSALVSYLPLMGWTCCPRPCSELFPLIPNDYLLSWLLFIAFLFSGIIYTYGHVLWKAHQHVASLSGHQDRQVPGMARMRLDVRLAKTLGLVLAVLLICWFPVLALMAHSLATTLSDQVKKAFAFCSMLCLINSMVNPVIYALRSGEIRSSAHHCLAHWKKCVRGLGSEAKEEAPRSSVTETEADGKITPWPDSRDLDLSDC
T1 sequence (P21554 whole entry): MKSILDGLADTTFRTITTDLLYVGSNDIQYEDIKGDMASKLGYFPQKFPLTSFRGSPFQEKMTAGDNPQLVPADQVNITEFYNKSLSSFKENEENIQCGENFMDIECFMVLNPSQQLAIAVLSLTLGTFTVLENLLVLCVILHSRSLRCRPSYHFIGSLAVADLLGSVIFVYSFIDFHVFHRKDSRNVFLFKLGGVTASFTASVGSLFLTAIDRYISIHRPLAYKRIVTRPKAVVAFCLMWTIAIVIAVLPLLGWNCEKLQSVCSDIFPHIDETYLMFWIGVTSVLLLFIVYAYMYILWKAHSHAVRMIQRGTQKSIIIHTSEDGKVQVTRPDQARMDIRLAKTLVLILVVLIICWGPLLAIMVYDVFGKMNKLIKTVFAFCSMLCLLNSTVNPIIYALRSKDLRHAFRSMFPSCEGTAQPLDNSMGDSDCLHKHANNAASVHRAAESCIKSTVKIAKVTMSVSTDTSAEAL

C[C@H](NC(=O)c1nn(-c2ccc(Cl)cc2Cl)c2c1CCCC/C2=C\c1ccc(F)cc1)c1ccccc1 [Cpd 149, (8E)-1-(2,4-dichloro-phenyl)-8-(4-fluoro-benzylidene)-1,4,5,6,7,8-hexahydro-cycloheptapyrazole-3-carboxylic acid [(1S)-1-phenyl-ethyl]-amide]
EC50 [1, 4]: 60 nM | inhibition at 0.2 µM [2, 5]: 4% | IC50 [3]: 100 nM | inhibition at 0.2 µM [3]: 66%

O=C(NN1CCCCC1)c1nn(-c2ccc(Cl)cc2Cl)c2c1CCCC/C2=C\c1ccc(F)cc1 [Cpd 150, (8E)-1-(2,4-dichloro-phenyl)-8-(4-fluoro-benzylidene)-1,4,5,6,7,8-hexahydro-cycloheptapyrazole-3-carboxylic acid piperidin-1-ylamide]
EC50 [1, 4]: 20 nM | inhibition at 0.2 µM [2, 5]: 3% | IC50 [3]: 100 nM | inhibition at 0.2 µM [3]: 65%

O=C(NN1CCOCC1)c1nn(-c2ccc(Cl)cc2Cl)c2c1CCCC/C2=C\c1ccc(F)cc1 [Cpd 151, (8E)-1-(2,4-dichloro-phenyl)-8-(4-fluoro-benzylidene)-1,4,5,6,7,8-hexahydro-cycloheptapyrazole-3-carboxylic acid morpholin-4-ylamide]
EC50 [1, 4]: 60 nM | inhibition at 0.2 µM [2, 5]: 15% | inhibition at 0.2 µM [3]: 51%

O=C(Nc1ccccn1)c1nn(-c2ccc(Cl)cc2Cl)c2c1CCCC/C2=C\c1ccc(Cl)cc1 [Cpd 152, (8E)-8-(4-chloro-benzylidene)-1-(2,4-dichloro-phenyl)-1,4,5,6,7,8-hexahydro-cycloheptapyrazole-3-carboxylic acid pyridin-2-ylamide]
EC50 ([1]; forskolin induced β-galactosidase activity, SK-N-MC cells, read-out: CB1 Receptor Functional Inverse Agonist EC50): 200 nM | inhibition at 0.2 µM ([2]; test concentration 0.2 μM (footnote 2), read-out: CB2 receptor binding percent inhibition): 21% | inhibition at 0.0125 µM ([3]; read-out: CB1 receptor binding percent inhibition, test concentration 0.0125 μM (footnote 13)): 28% | inhibition at 0.2 µM [3]: 66% | CB1 receptor binding percent inhibition ([3]; test concentration not stated): 47%

O=C(NCc1ccccn1)c1nn(-c2ccc(Cl)cc2Cl)c2c1CCCC/C2=C\c1ccc(Cl)cc1 [Cpd 155, (8E)-8-(4-chloro-benzylidene)-1-(2,4-dichloro-phenyl)-1,4,5,6,7,8-hexahydro-cycloheptapyrazole-3-carboxylic acid (pyridin-2-ylmethyl)-amide]
EC50 [1, 4]: 30 nM | inhibition at 0.2 µM [2, 5]: 8% | IC50 [3]: 70 nM | inhibition at 0.2 µM [3]: 72%

O=C(NCc1ccncc1)c1nn(-c2ccc(Cl)cc2Cl)c2c1CCCC/C2=C\c1ccc(Cl)cc1 [Cpd 156, (8E)-8-(4-chloro-benzylidene)-1-(2,4-dichloro-phenyl)-1,4,5,6,7,8-hexahydro-cycloheptapyrazole-3-carboxylic acid (pyridin-4-ylmethyl)-amide]
EC50 [1, 4]: 90 nM | inhibition at 0.2 µM [2, 5]: 36% | inhibition at 0.2 µM [3]: 50%

O=C(NCCc1ccccn1)c1nn(-c2ccc(Cl)cc2Cl)c2c1CCCC/C2=C\c1ccc(Cl)cc1 [Cpd 157, (8E)-8-(4-chloro-benzylidene)-1-(2,4-dichloro-phenyl)-1,4,5,6,7,8-hexahydro-cycloheptapyrazole-3-carboxylic acid (2-pyridin-2-yl-ethyl)-amide]
EC50 [1, 4]: 40 nM | inhibition at 0.2 µM [2, 5]: 5% | IC50 [3]: 100 nM | inhibition at 0.2 µM [3]: 68%

O=C(N[C@@H](CO)c1ccccc1)c1n[nH]c2c1CCCCC2Cc1cccc(Cl)c1 (stereo partly drawn) [Cpd 165, 8-(3-chloro-benzyl)-1,4,5,6,7,8-hexahydro-cycloheptapyrazole-3-carboxylic acid [(1R)-2-hydroxy-1-phenyl-ethyl]-amide]
EC50 [1, 6]: 30 nM | inhibition at 0.2 µM [2, 5]: 98% | inhibition at 0.2 µM [3]: 79%

O=C(N[C@@H](CO)Cc1ccccc1)c1n[nH]c2c1CCCCC2Cc1cccc(Cl)c1 (stereo partly drawn) [Cpd 167, 8-(3-chloro-benzyl)-1,4,5,6,7,8-hexahydro-cycloheptapyrazole-3-carboxylic acid [(1R)-1-benzyl-2-hydroxy-ethyl]-amide]
EC50 [1, 6]: 50 nM | inhibition at 0.2 µM [2, 5]: 97% | inhibition at 0.2 µM [3]: 57%

O=C(N[C@H](CCl)c1ccccc1)c1nn(-c2ccc(F)cc2F)c2c1CCCCC2Cc1ccc(F)cc1 (stereo partly drawn) [Cpd 172, 1-(2,4-difluoro-phenyl)-8-(4-fluoro-benzyl)-1,4,5,6,7,8-hexahydro-cycloheptapyrazole-3-carboxylic acid [(1S)-2-chloro-1-phenyl-ethyl]-amide]
EC50 [1, 4]: 100 nM | inhibition at 0.2 µM [2, 5]: 41% | inhibition at 0.2 µM [3]: 64%

C[C@@H](NC(=O)c1nn(-c2ccc(S(N)(=O)=O)cc2)c2c1CCCC/C2=C\c1ccc(Cl)cc1)c1ccccc1 [Cpd 184, (8E)-8-(4-chloro-benzylidene)-1-(4-sulfamoyl-phenyl)-1,4,5,6,7,8-hexahydro-cycloheptapyrazole-3-carboxylic acid [(1R)-1-phenyl-ethyl]-amide]
EC50 [1, 4]: 3 nM | inhibition at 0.2 µM [2, 5]: 27% | IC50 [3]: 50 nM | inhibition at 0.2 µM [3]: 78%

C[C@@H](NC(=O)c1nn(-c2ccc(S(N)(=O)=O)cc2)c2c1CCCC/C2=C\c1ccc(Cl)cc1)C1CCCCC1 [Cpd 185, (8E)-8-(4-chloro-benzylidene)-1-(4-sulfamoyl-phenyl)-1,4,5,6,7,8-hexahydro-cycloheptapyrazole-3-carboxylic acid [(1R)-1-cyclohexyl-ethyl]-amide]
EC50 [1, 4]: < 3 nM | inhibition at 0.2 µM [2, 5]: 56% | IC50 [3]: 30 nM | inhibition at 0.2 µM [3]: 75%

O=C(c1nn(-c2ccc(Cl)cc2Cl)c2c1CCCC/C2=C\c1ccc(F)cc1)N1CCCC1c1ccccn1 (stereo not shown) [Cpd 188, (8E)-[1-(2,4-dichloro-phenyl)-8-(4-fluoro-benzylidene)-1,4,5,6,7,8-hexahydro-cycloheptapyrazol-3-yl]-(2-pyridin-2-yl-pyrrolidin-1-yl)-methanone]
EC50 [1, 4]: 10 nM | inhibition at 0.2 µM [2, 5]: 36% | IC50 [3]: 100 nM | inhibition at 0.2 µM [3]: 64%

C[C@@H](NC(=O)c1nn(-c2ccccc2Cl)c2c1CCCC/C2=C\c1ccc(Cl)cc1)C1CCCCC1 [Cpd 189, (8E)-8-(4-chloro-benzylidene)-1-(2-chloro-phenyl)-1,4,5,6,7,8-hexahydro-cycloheptapyrazole-3-carboxylic acid [(1R)-1-cyclohexyl-ethyl]-amide]
EC50 [1, 4]: 10 nM | inhibition at 0.2 µM [2, 5]: 17% | IC50 [3]: 50 nM | inhibition at 0.2 µM [3]: 78%

C[C@@H](NC(=O)c1nn(-c2ccccc2Cl)c2c1CCCC/C2=C\c1ccc(Cl)cc1)c1ccccc1 [Cpd 190, (8E)-8-(4-chloro-benzylidene)-1-(2-chloro-phenyl)-1,4,5,6,7,8-hexahydro-cycloheptapyrazole-3-carboxylic acid [(1R)-1-phenyl-ethyl]-amide]
EC50 [1, 4]: 9 nM | inhibition at 0.2 µM [2, 5]: 12% | IC50 [3]: 80 nM | inhibition at 0.2 µM [3]: 76%

C[C@H](NC(=O)c1nn(-c2cc(Cl)ccc2Cl)c2c1CCCC/C2=C\c1ccc(Cl)cc1)C1CCCCC1 [Cpd 197, (8E)-8-(4-chloro-benzylidene)-1-(2,5-dichloro-phenyl)-1,4,5,6,7,8-hexahydro-cycloheptapyrazole-3-carboxylic acid [(1S)-1-cyclohexyl-ethyl]-amide]
EC50 [1, 4]: 3 nM | inhibition at 0.2 µM [2, 5]: 67% | IC50 [3]: 30 nM | inhibition at 0.2 µM [3]: 83%

CC[C@@H](NC(=O)c1nn(-c2ccc(Cl)cc2Cl)c2c1CCCC/C2=C\c1ccc(F)cc1)c1ccccc1 [Cpd 202, (8E)-1-(2,4-dichloro-phenyl)-8-(4-fluoro-benzylidene)-1,4,5,6,7,8-hexahydro-cycloheptapyrazole-3-carboxylic acid [(1R)-1-phenyl-propyl]-amide]
EC50 [1, 4]: 9 nM | inhibition at 0.2 µM [2, 5]: 9% | IC50 [3]: 10 nM | inhibition at 0.2 µM [3]: 91%

O=C(N[C@H](CO)c1ccccc1)c1nn(-c2ccc(Cl)cc2Cl)c2c1CCCC/C2=C\c1ccc(F)cc1 [Cpd 204, (8E)-1-(2,4-dichloro-phenyl)-8-(4-fluoro-benzylidene)-1,4,5,6,7,8-hexahydro-cycloheptapyrazole-3-carboxylic acid [(1S)-2-hydroxy-1-phenyl-ethyl]-amide]
EC50 [1, 4]: 3 nM | inhibition at 0.2 µM [2, 5]: 34% | IC50 [3]: 30 nM | inhibition at 0.2 µM [3]: 88%

CC(C)(NC(=O)c1nn(-c2ccc(Cl)cc2Cl)c2c1CCCC/C2=C\c1ccc(F)cc1)c1ccccc1 [Cpd 205, (8E)-1-(2,4-dichloro-phenyl)-8-(4-fluoro-benzylidene)-1,4,5,6,7,8-hexahydro-cycloheptapyrazole-3-carboxylic acid (1-methyl-1-phenyl-ethyl)-amide]
EC50 [1, 4]: 9 nM | inhibition at 0.2 µM [2, 5]: 27% | IC50 [3]: 20 nM | inhibition at 0.2 µM [3]: 93%

O=C(c1nn(-c2ccc(Cl)cc2Cl)c2c1CCCC/C2=C\c1ccc(F)cc1)N1CCCCC1c1ccccn1 (stereo not shown) [Cpd 206, (8E)-[1-(2,4-dichloro-phenyl)-8-(4-fluoro-benzylidene)-1,4,5,6,7,8-hexahydro-cycloheptapyrazol-3-yl]-(3,4,5,6-tetrahydro-2H-[2,2′]bipyridinyl-1-yl)-methanone]
EC50 [1, 4]: 10 nM | inhibition at 0.2 µM [2, 5]: 22% | IC50 [3]: 80 nM | inhibition at 0.2 µM [3]: 73%
